Experimental data published in paper PMC8205039, “Synthesis and biological evaluation of 4-phenoxy-phenyl isoxazoles as novel acetyl-CoA carboxylase inhibitors” (Journal of Enzyme Inhibition and Medicinal Chemistry, 2021).

What was measured:
HepG2 cells [1] = test: MTT assay, HepG2; assay type: cell-based; details: Homo sapiens, 72 h, mean ± SD (n = 3)
Description: (§1) The cytotoxicity of target compounds was assessed by MTT assay. Briefly, cells were seeded in 96-well plates at a density of 2500–3000 per well and incubated for 24 h in a CO2 incubator. Then, the cells were treated with candidate compounds at seven different concentrations for 72 h. At the end of treatment, the MTT reagent (5 mg/mL) was added to determine the cell viability. After 4 h of incubation, the resulting medium was removed, and 100 µL of DMSO was added to dissolve the formed formazan. Finally, the absorbance at 550 nm was measured by a microplate reader (Varioskan LUX, […]), with the IC50 values calculated using GraphPad Prism 5 software (GraphPad Software, La Jolla, CA, USA).

A549 cells [2] = test: MTT assay, A549; assay type: cell-based; details: Homo sapiens, 72 h, mean ± SD (n = 3)
Description: as §1

[3] = Cell viability of non-cancerous HUVEC; assay type: cell-based, human; details: human, HUVEC cells (non-cancerous)
Description: (§2) To investigate the selectivity of the synthesised compounds towards cancer cells, the non-cancerous HUVEC cell line was selected for testing.
as §1

HUVEC = test: Cell viability of non-cancerous HUVEC; assay type: cell-based, human; details: 10 μM
Description: as §2, §1

MDA-MB-231 cells [4] = test: MTT assay, MDA-MB-231; assay type: cell-based; details: Homo sapiens, 72 h, mean ± SD (n = 3)
Description: as §1

hACC1 = molecular target: T1, hACC1 (Homo sapiens, UniProt Q13085); test: ACC inhibitory assay (ADP-Glo luminescent ADP detection); assay type: biochemical; details: for inhibition at 0.1 µM: hACC1, 0.1 μM, read-out: IRs (%) 0.1 μM; for inhibition at 0.1 µM / inhibition at 5 µM: mean of two independent experiments (Table 2); for inhibition at 5 µM: hACC1, 5 μM, read-out: IRs (%) 5 μM; for IC50: hACC1, mean ± SD; for hACC1 IRs (%): at 5 μM, HTVS candidates (Table 1)
T1 construct: purchased BPS Biosciences 50200
Description: The hACC1 inhibitory activity of target compounds was evaluated using the ADP-Glo^TM kinase assay according to our previous report. In brief, 4.5 µL of working solution containing recombinant ACC1 (BPS Biosciences, 50200) and 0.5 µL of diluted compound solution were added to a 384-well Optiplate plate (Perkin Elmer, 6007290, PerkinElmer, Waltham, MA, USA), and incubated at room temperature for 15 min. Then, 5 µL of substrate mixture was added to the 384-well plate to start the reaction. After incubating for 60 min at room temperature, 10 µL of ADP-Glo reagents were added to the 384-well plate, and incubated for another 40 min to deplete the remaining ATP. Finally, 20 µL of kinase detection reagents were added to the plate and incubated for 40 min to convert ADP to ATP. The luminescent signal of ATP was determined using an Envision multifunction reader (Perkin Elmer, 2104–0010, PerkinElmer, Waltham, MA, USA). The IC50 values were calculated using GraphPad Prism 5 software (GraphPad Software, La Jolla, CA, USA).

MDA-MB-231 cells [5] = test: MTT assay, MDA-MB-231; assay type: cell-based; details: Homo sapiens, single concentration of 10 µM (Figure S2), read-out: inhibitory rate, MDA-MB-231
HepG2 cells [6] = test: MTT assay, HepG2; assay type: cell-based; details: Homo sapiens, single concentration of 10 µM (Figure S2), read-out: inhibitory rate, HepG2
A549 cells [7] = test: MTT assay, A549; assay type: cell-based; details: Homo sapiens, single concentration of 10 µM (Figure S2), read-out: inhibitory rate, A549

SMILES	IC50 (HepG2 cells [1])	IC50 (A549 cells [2])	melting point	IC50 (MDA-MB-231 cells [4])	inhibition at 0.1 µM (hACC1)	inhibition at 5 µM (hACC1)	IC50 (hACC1)	hACC1 IRs (%) (hACC1)	hACC1 IRs (%) (hACC1; listed as D098-1432 (6a))	ACC inhibitory activity (in words) (hACC1; screening at 5 µM and 0.1 µM)	viability at 72 h, 10 µM [3]	IRs towards HUVEC (HUVEC)	inhibition at 10 µM (MDA-MB-231 cells [5])	inhibition at 10 µM (HepG2 cells [6])	inhibition at 10 µM (A549 cells [7])
CCOc1ccc(Oc2ccc(-c3cc(C(C)NC(C)=O)on3)cc2)cc1 (stereo not drawn) [Compound 6d, N-(1-(3-(4-(4-Ethoxyphenoxy)phenyl)isoxazol-5-yl)ethyl)acetamide]	> 10 µM	> 10 µM	106.5 to 107.5 °C	> 10 µM	12.7%	45.5%					89.1 ± 6.09%				
CCCOc1ccc(Oc2ccc(-c3cc(C(C)NC(C)=O)on3)cc2)cc1 (stereo not drawn) [Compound 6e, N-(1-(3-(4-(4-Propoxyphenoxy)phenyl)isoxazol-5-yl)ethyl)acetamide]	3.48 ± 0.74 µM	2.66 ± 0.47 µM	118.5 to 119.5 °C	1.53 ± 0.38 µM	31.1%	> 60%	0.438 ± 0.0163 µM				83.7 ± 4.4%	less than 20%			
CC(=O)NC(C)c1cc(-c2ccc(Oc3ccc(OCc4ccccc4)cc3)cc2)no1 (stereo not drawn) [Compound 6a, N-(1-(3-(4-(4-(Benzyloxy)phenoxy)phenyl)isoxazol-5-yl)ethyl)acetamide]	1.91 ± 0.66 µM	1.4 ± 0.22 µM	152.5 to 153.5 °C	1.57 ± 0.09 µM	18.1%	54.9%		57%	57.39%		45.8 ± 1.16%		> 80%	> 80%	> 80%
CCC(=O)NC(C)c1cc(-c2ccc(Oc3ccccc3)cc2)no1 (stereo not drawn) [Compound 6i, N-(1-(3-(4-Phenoxyphenyl)isoxazol-5-yl)ethyl)propionamide]	4.21 ± 0.53 µM	6.02 ± 0.63 µM	129.5 to 130.5 °C	2.97 ± 1.49 µM	18.5%	51.8%					70.33 ± 0.25%				
O=C(c1c2ccccc2cc2ccccc12)N1CCC(N2CCC[C@@H](C(=O)N3CCOCC3)C2)CC1 [CP-640186, reference compound]					48.9%	87.8%	0.109 ± 0.0062 µM	86.83%							
CC(NC(=O)C1CC1)c1cc(-c2ccc(Oc3ccccc3)cc2)no1 (stereo not drawn) [Compound 6j, N-(1-(3-(4-Phenoxyphenyl)isoxazol-5-yl)ethyl)cyclopropanecarboxamide]	3.48 ± 0.74 µM	2.66 ± 0.47 µM	168.5 to 169.5 °C	1.13 ± 0.38 µM	20.8%	58.4%					59.5 ± 0.95%				
CC(=O)NC(C)c1cc(-c2ccc(Oc3ccc(O)cc3)cc2)no1 (stereo not drawn) [Compound 6b, N-(1-(3-(4-(4-Hydroxyphenoxy)phenyl)isoxazol-5-yl)ethyl)acetamide]	> 10 µM	> 10 µM	103 to 105 °C	> 10 µM	8.76%	26.8%					88.1 ± 3.83%				
CC(=O)NC(C)c1cc(-c2ccc(Oc3ccccc3)cc2)no1 (stereo not drawn) [Compound 6h, N-(1-(3-(4-Phenoxyphenyl)isoxazol-5-yl)ethyl)acetamide]	> 10 µM	> 10 µM	118.5 to 119.5 °C	> 10 µM	8.78%	36.4%					91.5 ± 2.58%				
CC(=O)NC(C)c1cc(-c2ccc(Oc3ccc(OC(C)C)cc3)cc2)no1 (stereo not drawn) [Compound 6f, N-(1-(3-(4-(4-Isopropoxyphenoxy)phenyl)isoxazol-5-yl)ethyl)acetamide]	> 10 µM	> 10 µM	124 to 126 °C	6.77 ± 0.74 µM	16.7%	52.8%					35 ± 1.66%				
COc1ccc(Oc2ccc(-c3cc(C(C)NC(C)=O)on3)cc2)cc1 (stereo not drawn) [Compound 6c, N-(1-(3-(4-(4-Methoxyphenoxy)phenyl)isoxazol-5-yl)ethyl)acetamide]	> 10 µM	> 10 µM	127.5 to 128.5 °C	> 10 µM	9.89%	37.3%					82.4 ± 4.85%				
CC(NC(=O)c1ccccc1)c1cc(-c2ccc(Oc3ccccc3)cc2)no1 (stereo not drawn) [Compound 6k, N-(1-(3-(4-Phenoxyphenyl)isoxazol-5-yl)ethyl)benzamide]	3.23 ± 0.89 µM	2.61 ± 0.34 µM		0.57 ± 0.18 µM	28.1%	> 60%	0.626 ± 0.0416 µM				80 ± 2.47%	less than 20%			

Further lines, with some results ahead:

IC50 (HepG2 cells [1])	IC50 (A549 cells [2])	melting point	IC50 (MDA-MB-231 cells [4])	inhibition at 0.1 µM (hACC1)	inhibition at 5 µM (hACC1)	IC50 (hACC1)	hACC1 IRs (%) (hACC1)	hACC1 IRs (%) (hACC1; listed as D098-1432 (6a))	ACC inhibitory activity (in words) (hACC1; screening at 5 µM and 0.1 µM)	SMILES	viability at 72 h, 10 µM [3]	IRs towards HUVEC (HUVEC)	inhibition at 10 µM (MDA-MB-231 cells [5])	inhibition at 10 µM (HepG2 cells [6])	inhibition at 10 µM (A549 cells [7])
1.8 ± 0.62 µM	5.3 ± 0.46 µM	195.5 to 196.5 °C	0.84 ± 0.08 µM	21.5%	> 60%	1.05 ± 0.18 µM				CC(NC(=O)Nc1ccccc1)c1cc(-c2ccc(Oc3ccccc3)cc2)no1 (stereo not drawn) [Compound 6p, 1-(1-(3-(4-Phenoxyphenyl)isoxazol-5-yl)ethyl)-3-phenylurea]	85.6 ± 7.35%	less than 20%			
9.04 ± 1.43 µM	5.78 ± 0.86 µM	158.5 to 159.5 °C	8.63 ± 1.14 µM	13.4%	44.7%					CCNC(=O)NC(C)c1cc(-c2ccc(Oc3ccccc3)cc2)no1 (stereo not drawn) [Compound 6n, 1-Ethyl-3-(1-(3-(4-phenoxyphenyl)isoxazol-5-yl)ethyl)urea]	83.2 ± 2.33%				
2.31 ± 0.44 µM	3.12 ± 0.19 µM	197.5 to 198.5 °C	1.9 ± 0.52 µM	17.9%	49.8%					CC(C)NC(=O)NC(C)c1cc(-c2ccc(Oc3ccccc3)cc2)no1 (stereo not drawn) [Compound 6o, 1-Isopropyl-3-(1-(3-(4-phenoxyphenyl)isoxazol-5-yl)ethyl)urea]	77.7 ± 5.67%				
2.47 ± 0.5 µM	5.73 ± 0.11 µM	161.5 to 162.5 °C	0.89 ± 0.26 µM	28.3%	> 60%	0.711 ± 0.0526 µM				CC(NC(=O)NCc1ccccc1)c1cc(-c2ccc(Oc3ccccc3)cc2)no1 (stereo not drawn) [Compound 6q, 1-Benzyl-3-(1-(3-(4-phenoxyphenyl)isoxazol-5-yl)ethyl)urea]	84.9 ± 3.98%	less than 20%			
> 10 µM	> 10 µM	106.5 to 107.5 °C	> 10 µM	3.57%	16.8%				hardly observed	CCOC(=O)NC(C)c1cc(-c2ccc(Oc3ccccc3)cc2)no1 (stereo not drawn) [Compound 6m, Ethyl (1-(3-(4-phenoxyphenyl)isoxazol-5-yl)ethyl)carbamate]	79.1 ± 4.76%				
0.67 ± 0.13 µM	0.52 ± 0.07 µM		0.42 ± 0.09 µM							COc1cccc2c1C(=O)c1c(O)c3c(c(O)c1C2=O)C[C@@](O)(C(=O)CO)C[C@@H]3O[C@H]1C[C@H](N)[C@H](O)[C@H](C)O1 [DOX, doxorubicin, reference compound]	18.9 ± 4.02%				
